Values quoted from earlier work, collected in US11439578B2, “Agent for dyeing hair, containing at least one organic silicon compound, a coloring compound and a film-forming, hydrophilic polymer” (Henkel AG & Co. KGaA, priority 2018, dated 2022).

Details: about 25° C.

solubility in water (in words)	SMILES	solubility in water
–	CCN(Cc1cccc(S(=O)(=O)[O-])c1)c1ccc(C(=C2C=CC(=[N+](CC)Cc3cccc(S(=O)(=O)[O-])c3)C=C2)c2ccccc2S(=O)(=O)[O-])cc1.[Na+].[Na+] [Acid Blue 9]	more than 20 % by weight
–	O=S(=O)([O-])c1ccc(N=Nc2c(O)ccc3ccccc23)cc1.[Na+] [Acid Orange 7, sodium salt of 4-[(2-hydroxy-1-naphthyl)azo]benzene sulphonate]	more than 7 g/L
–	Nc1cc(S(=O)(=O)[O-])cc2cc(S(=O)(=O)[O-])c(N=Nc3ccccc3)c(O)c12.[Na+].[Na+] [Acid Red 33, disodium salt of 5-amino-4-hydroxy-3-(phenylazo)-naphthalene-2,7-disulphonate]	about 2.5 g/L
–	O=C([O-])c1c(Cl)c(Cl)c(Cl)c(Cl)c1-c1c2c(Br)cc(=O)c(Br)c-2oc2c(Br)c(O)cc(Br)c12.O=C([O-])c1c(Cl)c(Cl)c(Cl)c(Cl)c1-c1c2c(Br)cc(=O)c(Br)c-2oc2c(Br)c(O)cc(Br)c12.[Na+].[Na+] [Acid Red 92, disodium salt of 3,4,5,6-tetrachloro-2-(1,4,5,8-tetrabromo-6-hydroxy-3-oxoxanthen-9-yl)benzoic acid]	greater than 10 g/L
highly soluble in water	O=C([O-])C1=NN(c2ccc(S(=O)(=O)[O-])cc2)C(=O)C1N=Nc1ccc(S(=O)(=O)[O-])cc1.[Na+].[Na+].[Na+] (centres unmarked) [Acid Yellow 23, trisodium salt of 4,5-dihydro-5-oxo-1-(4-sulfophenyl)-4-((4-sulfophenyl)azo)-1H-pyrazole-3-carboxylic acid]	–
